# Strand notation (5' to 3'): a small letter for the sugar, then the base; units joined by * are phosphorothioate-linked, units joined directly phosphodiester-linked; [ ] holds rarer units or linkages, { } end groups; capitals alone tell only the bases. k = constrained ethyl (cEt); [5mC] = 5-methylcytosine; d = 2'-deoxy (DNA)
# Test system: human SMAD7 mRNA
# Test: Antisense inhibition of human SMAD7 mRNA expression in Hep3B cells by 3-10-3 cEt gapmers, 10,000 nM, electroporation (Example 2)
# Type: cell-based
# Details: Hep3B cells, 10,000 nM antisense oligonucleotide, electroporation, approximately 24 hours, RT-PCR primer probe set RTS5062, relative to untreated control cells
# In short: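 Percent inhibition of SMAD7 mRNA, relative to untreated cells, after ~24 h exposure of electroporated Hep3B cells to 10,000 nM cEt gapmer; levels by qRT-PCR, corrected for total RNA.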
row,Substance,% Inhibition [%]
1,798839 (kG*kT*kT*dG*dT*d[5mC]*d[5mC]*dG*dA*dA*dT*dT*dG*kA*kG*k[5mC]; antisense) [compound 798839],47
2,798891 (kG*k[5mC]*k[5mC]*d[5mC]*dT*dT*d[5mC]*dA*d[5mC]*dA*dA*dA*dG*k[5mC]*kT*kG; antisense) [compound 798891],58
3,799874 (k[5mC]*kA*kG*dA*d[5mC]*dT*dG*dG*dA*dA*dA*dA*dG*kT*kT*kA; antisense) [compound 799874],0
4,798826 (k[5mC]*kT*k[5mC]*d[5mC]*dT*dG*dG*dA*d[5mC]*dA*d[5mC]*dA*dG*kT*kA*kG; antisense) [compound 798826],14
5,799855 (kA*kG*k[5mC]*d[5mC]*dA*dA*dG*dT*dG*dT*d[5mC]*d[5mC]*dA*kT*k[5mC]*kA; antisense) [compound 799855],52
6,799955 (antisense k[5mC]*kG*k[5mC]*dT*d[5mC]*dA*dG*dA*dA*dA*dA*dT*dG*k[5mC]*k[5mC]*k[5mC]) [compound 799955],50
7,798876 (kG*kG*k[5mC]*d[5mC]*dG*d[5mC]*dT*dG*d[5mC]*dA*dG*dG*d[5mC]*kT*kG*kT; antisense) [compound 798876],50
8,798875 (k[5mC]*kG*k[5mC]*dT*dG*d[5mC]*dA*dG*dG*d[5mC]*dT*dG*dT*kA*k[5mC]*kG; antisense) [compound 798875],58

# Same assay, conditions: Hep3B cells, electroporation with 10,000 nM antisense oligonucleotide, approximately 24 hours, RTS5062, percent inhibition of SMAD7 mRNA relative to untreated control cells
row,Substance,% Inhibition [%]
1,799570 (kA*kA*kA*dA*dG*dA*dT*dG*d[5mC]*dA*dG*dT*dT*k[5mC]*kA*k[5mC]; antisense) [compound 799570],39
2,799316 (antisense kA*kA*kA*d[5mC]*dA*d[5mC]*d[5mC]*dA*dA*dG*dA*dT*d[5mC]*k[5mC]*kA*kT) [compound 799316],0
3,799805 (k[5mC]*kG*kA*dG*dA*dA*dG*dA*dG*dT*dA*dA*dT*kT*k[5mC]*kA; antisense) [compound 799805],1
4,799664 (antisense kG*k[5mC]*k[5mC]*dA*dG*d[5mC]*dA*dA*dG*dG*dA*dT*d[5mC]*kA*kA*kA) [compound 799664],8

# Same assay, conditions: Hep3B cells, electroporation with 10,000 nM antisense oligonucleotide, approximately 24 hours, SMAD7 mRNA by RT-PCR (RTS5062), relative to untreated control cells
row,Substance,% Inhibition [%]
1,830164 (antisense kG*k[5mC]*kT*dG*d[5mC]*dT*dT*dG*dG*d[5mC]*d[5mC]*dT*dT*kA*k[5mC]*k[5mC]) [compound 830164],38
2,798885 (kG*k[5mC]*kA*d[5mC]*dG*dG*dT*dA*dA*dA*dG*d[5mC]*d[5mC]*k[5mC]*kG*kT; antisense) [compound 798885],43
3,800007 (k[5mC]*kT*k[5mC]*dA*dA*dG*dG*d[5mC]*d[5mC]*dA*d[5mC]*dA*dT*kT*kT*kT; antisense) [compound 800007],23
4,830042 (antisense k[5mC]*kA*kG*dG*dT*dT*dA*dA*dT*d[5mC]*dA*d[5mC]*dT*kT*k[5mC]*k[5mC]) [compound 830042],64
5,799252 (antisense k[5mC]*kA*kA*dA*dG*dG*dT*dG*d[5mC]*dG*d[5mC]*dG*dG*k[5mC]*k[5mC]*kA) [compound 799252],41
6,800021 (kG*kG*k[5mC]*d[5mC]*dT*d[5mC]*dT*d[5mC]*dG*d[5mC]*dT*dG*dA*kT*kA*kG; antisense) [compound 800021],0
7,830167 (antisense kT*kT*kT*dA*d[5mC]*dA*d[5mC]*dA*d[5mC]*d[5mC]*d[5mC]*d[5mC]*dA*kG*kG*kG) [compound 830167],39
8,830046 (kT*k[5mC]*k[5mC]*dG*dA*dT*dT*dG*dG*d[5mC]*dA*dG*dG*kT*kT*kA; antisense) [compound 830046],60
9,800044 (k[5mC]*k[5mC]*kT*dG*dA*dG*dA*dT*d[5mC]*dG*dA*dG*dG*kT*kG*k[5mC]; antisense) [compound 800044],18
10,830033 (antisense kT*k[5mC]*k[5mC]*d[5mC]*d[5mC]*d[5mC]*dT*dT*dG*dG*dA*dA*dA*kT*kG*kG) [compound 830033],28

# Same assay, conditions: Hep3B cells, electroporation with 10,000 nM antisense oligonucleotide, approximately 24 hours, primer probe set RTS5062, relative to untreated control cells
Substance,% Inhibition [%],% inhibition of SMAD7 mRNA expression [%]
799191 (antisense kA*kT*kG*dA*dG*dA*dA*dT*dG*d[5mC]*dT*dT*d[5mC]*kT*k[5mC]*kT) [compound 799191],26,
798989 (antisense kA*kA*kG*dT*dG*dA*dA*dA*dT*dG*dA*dT*dG*kA*k[5mC]*k[5mC]) [compound 798989],,8
798963 (antisense kT*kT*k[5mC]*dT*dT*d[5mC]*d[5mC]*dA*dA*dA*dA*dA*dA*kA*k[5mC]*k[5mC]) [compound 798963],,13
798655 (kG*kG*k[5mC]*d[5mC]*d[5mC]*dG*d[5mC]*dG*d[5mC]*d[5mC]*d[5mC]*dT*dG*k[5mC]*kG*k[5mC]; antisense) [compound 798655],,21
799052 (antisense k[5mC]*kT*kG*dT*dG*dG*dA*d[5mC]*dA*dG*dG*d[5mC]*d[5mC]*k[5mC]*kG*kT) [compound 799052],,40
799103 (antisense k[5mC]*k[5mC]*kG*dG*dG*dA*dA*dA*dA*dA*d[5mC]*d[5mC]*dT*kG*kA*kT) [compound 799103],,12

# Same assay, conditions: Hep3B cells, electroporation, 10,000 nM antisense oligonucleotide, approximately 24 hours, RTS5062, relative to untreated control cells
row,Substance,% inhibition of SMAD7 mRNA expression [%]
1,799672 (antisense kA*k[5mC]*kA*dG*dG*dA*dT*dG*dG*dA*dG*d[5mC]*dA*kA*kT*kG) [compound 799672],41
2,799576 (kG*kA*kA*dA*dG*dG*dA*d[5mC]*d[5mC]*d[5mC]*dT*dT*dT*k[5mC]*kA*kA; antisense) [compound 799576],25
3,799717 (antisense kG*k[5mC]*kA*dG*dG*d[5mC]*dT*dA*d[5mC]*d[5mC]*dA*dG*d[5mC]*k[5mC]*kT*kT) [compound 799717],0
4,799554 (kT*kA*k[5mC]*d[5mC]*dT*dG*dT*dG*dA*dG*d[5mC]*d[5mC]*d[5mC]*kT*kG*kA; antisense) [compound 799554],0

# Same assay, conditions: Hep3B cells, electroporation, 10,000 nM, approximately 24 hours; 3-10-3 cEt gapmers targeting SEQ ID NO: 3 and 4
row,Substance,% inhibition of SMAD7 mRNA expression [%]
1,799269 (antisense kA*kG*kA*d[5mC]*dT*d[5mC]*d[5mC]*dA*dG*dT*dT*d[5mC]*dG*kG*k[5mC]*k[5mC]) [compound 799269],20

# Same assay, conditions: SMAD7 mRNA, Hep3B cells, 10,000 nM antisense oligonucleotide, electroporation, approximately 24 hours, primer probe set RTS5062, relative to untreated control cells
row,Substance,% Inhibition [%]
1,772571 (antisense k[5mC]*k[5mC]*kG*dT*dA*dA*dG*dA*dT*dT*d[5mC]*dA*d[5mC]*kA*kG*k[5mC]) [compound 772571],50
2,790701 (kG*kG*kA*dT*dA*d[5mC]*dA*d[5mC]*dT*dT*dA*dA*dT*k[5mC]*kA*kA; antisense) [compound 790701],57
3,772584 (kG*kA*kA*dG*dT*dT*dG*dG*dG*dA*dA*dT*d[5mC]*kT*kG*kA; antisense) [compound 772584],4

# Same assay, conditions: SMAD7 mRNA, Hep3B cells, electroporation with 10,000 nM antisense oligonucleotide, approximately 24 hours, primer probe set RTS5062, relative to untreated control cells
row,Substance,% Inhibition [%]
1,829949 (k[5mC]*k[5mC]*kG*dG*dG*d[5mC]*dA*dG*d[5mC]*d[5mC]*dA*dG*dT*kT*kA*kA; antisense) [compound 829949],19
2,829867 (antisense kT*kG*kT*dG*dG*d[5mC]*dG*dG*dA*d[5mC]*dT*dT*dG*kA*kT*kG) [compound 829867],22
3,829896 (antisense k[5mC]*kG*kG*dG*dT*dG*dT*dA*dG*d[5mC]*dA*d[5mC]*dT*kG*kG*k[5mC]) [compound 829896],44
